Data: ChEMBL document CHEMBL1681651, “A broad spectrum anticancer nucleoside with selective toxicity against human colon cells in vitro” (2011)

Experiments:
Assay type in all cases: functional
KM12 [1] = experiment: Growth inhibition of human KM12 cells assessed as cell growth at 10 uM after 48 hrs by SRB assay; details: KM12, 48 h, read-out: Activity
Malme-3M = experiment: Growth inhibition of human MALME-3M cells assessed as cell growth at 1 mM after 48 hrs by SRB assay; details: read-out: Activity
UACC-62 = experiment: Growth inhibition of human UACC62 cells after 48 hrs by […] growth inhibition assay; details: UACC-62, 48 h
RXF 393 = experiment: Growth inhibition of human RXF393 cells after 48 hrs by […] growth inhibition assay; details: RXF 393, 48 h
786-0 [2] = experiment: Growth inhibition of human 786-0 cells assessed as cell growth at 100 uM after 48 hrs by SRB assay; details: 786-0, 48 h, read-out: Activity
SK-MEL-5 [3] = experiment: Growth inhibition of human SK-MEL-5 cells assessed as cell growth at 1 uM after 48 hrs by SRB assay; details: SK-MEL-5, 48 h, read-out: Activity
A549 = experiment: Growth inhibition of human A549 cells assessed as cell growth at 0.1 uM after 48 hrs by SRB assay; details: A549, 48 h, read-out: Activity
KM12 [4] = experiment: Growth inhibition of human KM12 cells assessed as cell growth at 1 mM after 48 hrs by SRB assay; details: KM12, 48 h, read-out: Activity
SF-268 = experiment: Growth inhibition of human SF268 cells assessed as cell growth at 1 mM after 48 hrs by SRB assay; details: SF-268, 48 h, read-out: Activity
NCI/ADR-RES = experiment: Growth inhibition of human NCI/ADR-RES cells assessed as cell growth at 0.1 uM after 48 hrs by SRB assay; details: read-out: Activity
MCF7 = experiment: Growth inhibition of human MCF7 cells after 48 hrs by […] growth inhibition assay; details: MCF7, 48 h
CCRF-CEM [5] = experiment: Growth inhibition of human CCRF-CEM cells assessed as cell growth at 1 uM after 48 hrs by SRB assay; details: read-out: Activity
SK-MEL-5 [6] = experiment: Growth inhibition of human SK-MEL-5 cells assessed as cell growth at 100 uM after 48 hrs by SRB assay; details: SK-MEL-5, 48 h, read-out: Activity
SK-MEL-28 = experiment: Growth inhibition of human SK-MEL-28 cells after 48 hrs by […] growth inhibition assay; details: SK-MEL-28, 48 h, read-out: LC50 (the source's name)
LOX IMVI = experiment: Growth inhibition of human LOXIMVI cells assessed as cell growth at 0.1 uM after 48 hrs by SRB assay; details: read-out: Activity
SK-MEL-5 [7] = experiment: Growth inhibition of human SK-MEL-5 cells after 48 hrs by […] growth inhibition assay; details: SK-MEL-5, 48 h
IGROV-1 = experiment: Growth inhibition of human IGROV1 cells assessed as cell growth at 10 uM after 48 hrs by SRB assay; details: IGROV-1, 48 h, read-out: Activity
DU-145 = experiment: Growth inhibition of human DU145 cells after 48 hrs by […] growth inhibition assay; details: DU-145, 48 h
MDA-MB-435 = experiment: Growth inhibition of human MDA-MB-435 cells assessed as cell growth at 1 mM after 48 hrs by SRB assay; details: MDA-MB-435, 48 h, read-out: Activity
SK-MEL-2 = experiment: Growth inhibition of human SK-MEL-2 cells after 48 hrs by […] growth inhibition assay; details: SK-MEL-2, 48 h
CCRF-CEM [8] = experiment: Growth inhibition of human CCRF-CEM cells assessed as cell growth at 10 uM after 48 hrs by SRB assay; details: read-out: Activity
SF-295 [9] = experiment: Growth inhibition of human SF295 cells assessed as cell growth at 10 uM after 48 hrs by SRB assay; details: SF-295, 48 h, read-out: Activity
OVCAR-5 [10] = experiment: Growth inhibition of human OVCAR5 cells assessed as cell growth at 1 mM after 48 hrs by SRB assay; details: OVCAR-5, 48 h, read-out: Activity
786-0 [11] = experiment: Growth inhibition of human 786-0 cells after 48 hrs by […] growth inhibition assay; details: 786-0, 48 h
OVCAR-3 = experiment: Growth inhibition of human OVCAR3 cells assessed as cell growth at 10 uM after 48 hrs by SRB assay; details: OVCAR-3, 48 h, read-out: Activity
HCC 2998 = experiment: Growth inhibition of human HCC2998 cells assessed as cell growth at 1 uM after 48 hrs by SRB assay; details: HCC 2998, 48 h, read-out: Activity
OVCAR-5 [12] = experiment: Growth inhibition of human OVCAR5 cells after 48 hrs by […] growth inhibition assay; details: OVCAR-5, 48 h
NCI-H322M = experiment: Growth inhibition of human NCI-H322M cells assessed as cell growth at 100 uM after 48 hrs by SRB assay; details: read-out: Activity
NCI-H522 = experiment: Growth inhibition of human NCI-H522 cells assessed as cell growth at 100 uM after 48 hrs by SRB assay; details: NCI-H522, 48 h, read-out: Activity
SF-295 [13] = experiment: Growth inhibition of human SF295 cells after 48 hrs by […] growth inhibition assay; details: SF-295, 48 h
[14] = read-out: LC50 (the source's name)
[15] = read-out: pLC50 (the source's name) (converted)

Structure (SMILES): CNC(=O)NC[C@H]1O[C@@H](n2cnc3c(NC(=O)Nc4ccccc4)ncnc32)[C@H](O[Si](C)(C)C(C)(C)C)[C@@H]1O[Si](C)(C)C(C)(C)C
- growth at 10 µM (KM12 [1]): 107%
- growth at 1000 µM (Malme-3M): -48%
- GI50 (UACC-62; read-out: GI50): 3.98 µM
- CC50 (UACC-62; [14]): > 100 µM
- TGI (UACC-62; read-out: TGI): 23.6 µM
- GI50 (UACC-62; read-out: pGI50 (converted)): 3.98 µM
- CC50 (UACC-62; [15]): > 100 µM
- TGI (UACC-62; read-out: pTGI (converted)): 23.4 µM
- GI50 (RXF 393; read-out: GI50): 2.14 µM
- CC50 (RXF 393; [14]): 7.5 µM
- TGI (RXF 393; read-out: TGI): 4.01 µM
- GI50 (RXF 393; read-out: pGI50 (converted)): 2.14 µM
- CC50 (RXF 393; [15]): 7.41 µM
- TGI (RXF 393; read-out: pTGI (converted)): 3.98 µM
- growth at 100 µM (786-0 [2]): -83%
- growth at 1 µM (SK-MEL-5 [3]): 98%
- growth at 0.1 µM (A549): 99%
- growth at 1000 µM (KM12 [4]): -74%
- growth at 1000 µM (SF-268): -45%
- growth at 0.1 µM (NCI/ADR-RES): 106%
- GI50 (MCF7; read-out: GI50): 2.69 µM
- CC50 (MCF7; [14]): > 100 µM
- TGI (MCF7; read-out: TGI): 19.3 µM
- GI50 (MCF7; read-out: pGI50 (converted)): 2.69 µM
- CC50 (MCF7; [15]): > 100 µM
- TGI (MCF7; read-out: pTGI (converted)): 19.5 µM
- growth at 1 µM (CCRF-CEM [5]): 109%
- growth at 100 µM (SK-MEL-5 [6]): -42%
- CC50 (SK-MEL-28): 28.3 µM
- growth at 0.1 µM (LOX IMVI): 102%
- GI50 (SK-MEL-5 [7]; read-out: GI50): 1.98 µM
- CC50 (SK-MEL-5 [7]; [14]): 13.6 µM
- TGI (SK-MEL-5 [7]; read-out: TGI): 4.75 µM
- GI50 (SK-MEL-5 [7]; read-out: pGI50 (converted)): 2 µM
- CC50 (SK-MEL-5 [7]; [15]): 13.5 µM
- TGI (SK-MEL-5 [7]; read-out: pTGI (converted)): 4.79 µM
- growth at 10 µM (IGROV-1): 98%
- GI50 (DU-145; read-out: GI50): 2.58 µM
- CC50 (DU-145; [14]): 18.7 µM
- TGI (DU-145; read-out: TGI): 5.71 µM
- GI50 (DU-145; read-out: pGI50 (converted)): 2.57 µM
- CC50 (DU-145; [15]): 18.6 µM
- TGI (DU-145; read-out: pTGI (converted)): 5.75 µM
- growth at 1000 µM (MDA-MB-435): -10%
- GI50 (SK-MEL-2; read-out: GI50): 2.45 µM
- CC50 (SK-MEL-2; [14]): > 100 µM
- TGI (SK-MEL-2; read-out: TGI): 55.4 µM
- GI50 (SK-MEL-2; read-out: pGI50 (converted)): 2.45 µM
- CC50 (SK-MEL-2; [15]): 28.2 µM
- TGI (SK-MEL-2; read-out: pTGI (converted)): 5.5 µM
- growth at 10 µM (CCRF-CEM [8]): 101%
- growth at 10 µM (SF-295 [9]): 111%
- growth at 1000 µM (OVCAR-5 [10]): -43%
- GI50 (786-0 [11]; read-out: GI50): 2.04 µM
- CC50 (786-0 [11]; [14]): 6.75 µM
- TGI (786-0 [11]; read-out: TGI): 3.71 µM
- GI50 (786-0 [11]; read-out: pGI50 (converted)): 2.04 µM
- CC50 (786-0 [11]; [15]): 6.76 µM
- TGI (786-0 [11]; read-out: pTGI (converted)): 3.72 µM
- growth at 10 µM (OVCAR-3): 113%
- growth at 1 µM (HCC 2998): 93%
- GI50 (OVCAR-5 [12]; read-out: GI50): 5.24 µM
- CC50 (OVCAR-5 [12]; [14]): > 100 µM
- TGI (OVCAR-5 [12]; read-out: TGI): 25.2 µM
- GI50 (OVCAR-5 [12]; read-out: pGI50 (converted)): 5.25 µM
- CC50 (OVCAR-5 [12]; [15]): > 100 µM
- TGI (OVCAR-5 [12]; read-out: pTGI (converted)): 25.1 µM
- growth at 100 µM (NCI-H322M): 39%
- growth at 100 µM (NCI-H522): -15%
- GI50 (SF-295 [13]; read-out: GI50): 3.84 µM
- LC50 (SF-295 [13]; read-out: LC50): > 100 µM
- TGI (SF-295 [13]; read-out: TGI): 31.8 µM
- GI50 (SF-295 [13]; read-out: pGI50 (converted)): 3.8 µM
- LC50 (SF-295 [13]; read-out: pLC50 (converted)): > 100 µM
- TGI (SF-295 [13]; read-out: pTGI (converted)): 31.6 µM
